# Read-outs that look alike come from different tables or passages of the source.
# Columns and labels:
# [1] = Toxicokinetics of cereulide in rabbits after a single intravenous injection (plasma, UPLC-MS/MS); assay type: in vivo, New Zealand White rabbits; details: for MRT / Tmax: rabbit; for MRT: read-out: MRTlast, mean retention time until the last time point; for Tmax: read-out: Tmax, time to peak concentration
# Experimental: A total number of eight rabbits (half female and half male) were used to evaluate the toxicokinetics of cereulide after a single administration of 5 μg cereulide. All plasma samples at different time points were collected, and the concentrations of cereulide were quantified by UPLC-MS/MS assay. The dynamic curve of cereulide in the plasma of rabbits is shown in Figure 3a, and toxicokinetic parameters were calculated using a non-compartmental model as shown in Table 1. […] The concentration of cereulide dropped down until 1 h and rose thereafter. Following a short stationary phase from 4 h to 8 h, the concentration of cereulide decreased gradually. No cereulide could be detected 32 h later. Additionally, no cereulide was detected in the rabbits treated by 0.9% saline-methanol (10:90, v/v) based on our established UPLC-MS/MS method.
# (§1) This animal study was approved by the Institutional Animal Care and Use Committee at the China Agricultural University (SYXK (2012-0037), 28 December 2012), and all the operations were conducted according to the biosafety procedures. Eight adult New Zealand White rabbits (four female and four male) with weights of 2.0 ± 0.3 kg were used in this study. A single intravenous dose of 5 μg cereulide dissolved in 0.9% saline-methanol (10:90, v/v; the amount of methanol injected to rabbit was about 1.8 g/kg body weight) was administrated. Two other rabbits (one female and one male) were treated by 0.9% saline-methanol (10:90, v/v) as control. Blood samples were collected after injection at different time points 0, 0.2, 0.5, 1, 2, 3, 4, 5, 6, 8, 10, 12, 16, 20, 24, 28, 32 h. All samples were centrifuged at 4 °C, 2000 g for 10 min. Plasma from each sample was collected and stored at −80 °C.
# The plasma samples were thawed to room temperature before analysis. Then 200 μL of each sample was spiked with 10 ng/mL valinomycin (Sigma-Aldrich, St. Louis, MO, USA) as internal standards in a 1.5 mL tube (Axygen, Union City, CA, USA). The extraction steps were as below. First 1 mL acetonitrile (Fisher Scientific, Waltham, PA, USA) was added to each sample and vortexed for 3 min. After centrifugation at 13,000 g for 10 min, the supernatants were transferred into new tubes. The extraction steps were repeated once and the supernatants were combined. The supernatants were evaporated under a flow of nitrogen gas at 50 °C. The dry samples were reconstituted with 500 μL methanol and water with the ratio of 9:1 (v/v), vortexed for 3 min and filtered through 0.22 μm filter membrane (PALL, Port Washington, NY, USA) before UPLC-MS/MS analysis.
# The presence of cereulide was confirmed in all extracts and quantified by UPLC-MS/MS as described before. UPLC-MS/MS (Waters, Milford, MA, USA) equipped with a RP C18 column (50 mm × 2.1 mm, 1.7 μm, Acquity UPLC, Milford, MA, USA) was used. A gradient program was applied with the mobile phase consisting of solvent A (0.1% formic acid (Dikma, Lake Forest, CA, USA) in water) and solvent B (0.1% formic acid in acetonitrile) as follows: 98%–10% A (0–1 min), 10%–0% A (1–3 min), 0%–98% A (3–5 min). The flow rate was set at 0.3 mL/min with the injection volume of 10 μL. A positive electrospray ionization (ESI^+) mode was chosen to analyze the transitions of m/z 1170.9 → 1125.9 for cereulide and m/z 1128.8 → 1084.3 for valinomycin, by multiple reaction monitoring (MRM) method. The cone voltages for cereulide and valinomycin were 10 V and 60 V, and collision energy were 20 eV and 37 eV, respectively. All data were acquired and processed by software Masslynx 4.1 (Waters, Milford, MA, USA, 2005). The toxicokinetic parameters of cereulide were analyzed by the commercial pharmacokinetic program Phoenix WinNonlin 5.2.1 (Certara, Princeton, NJ, USA).
# [2] = system: aspartate aminotransferase (AST) in plasma; test: Liver damage in rabbits evaluated by plasma AST concentration (indirect EIA); assay type: in vivo, New Zealand White rabbits; details: mean ± SD, n = 8, control range 15.0 to 30.0 ng/mL
# Experimental: Liver damage in rabbits triggered by cereulide was evaluated by the concentration of aspartate aminotransferase (AST) in plasma. […] Liver function recovered, with the concentration of AST returning to the normal level 32 h after administration. In addition, the concentrations of AST in female rabbits were higher than those in males (Figure 3c), especially at the time point of 0.5 h (P = 0.0345).
# as §1, with “Blood samples were collected after injection at different time points 0, 0.2, 0.5, 1, 2, 3, 4, 5, 6, 8, 10, 12, 16, 20, 24, 28, 32 h. All samples were centrifuged at 4 °C, 2000 g for 10 min. Plasma from each sample was collected and stored at −80 °C.” left out
# Plasma samples at time points of 0.5, 6, 12, 24 and 32 h were evaluated concentrations of AST by indirect EIA according to the instruction (Beyotime Biotechnology, Beijing, China). […] Subsequently, the substrate was added with the absorbance at 450 nm.
# [3] = still active after heat treatment in food processing and passing through the intestinal tract; cited from earlier work
# Excerpt: B. cereus can be found in most common food matrices such as rice, pasta and dairy products, and it represents more than 68.0% of foodborne outbreaks in all food types. There is an increasing occurrence of B. cereus foodborne outbreaks. For example, B. cereus was responsible for 13.4% of bacterial foodborne outbreaks, ranking as the second among the most frequent bacterial causes of foodborne disease in Chinese inland provinces. In fact, the number of B. cereus contaminations is highly underestimated, because foodborne B. cereus disease is mild and self-limiting and is consequently ...
# [4] = both sexes, New Zealand White, plasma, iv, 5 ug, single i.v. 5 μg cereulide/rabbit, plasma, UPLC-MS/MS, non-compartmental, n = 8, mean ± SD
# [5] = both sexes, New Zealand White, plasma, iv, 5 ug, single i.v. 5 μg cereulide/rabbit, plasma, UPLC-MS/MS, non-compartmental, n = 8, median
# [6] = single i.v. 5 μg cereulide/rabbit, plasma, UPLC-MS/MS (LOQ 1.5 ng/mL)
# [7] = single i.v. 5 μg cereulide/rabbit, plasma, UPLC-MS/MS, non-compartmental, n = 8, median
# [8] = single i.v. 5 μg cereulide/rabbit, plasma, UPLC-MS/MS, non-compartmental, n = 8, range
smiles,measurement,setting,value
CC(C)C[C@H]1OC(=O)[C@H](C(C)C)NC(=O)[C@H](C(C)C)OC(=O)[C@@H](C)NC(=O)[C@@H](CC(C)C)OC(=O)[C@H](C(C)C)NC(=O)[C@H](C(C)C)OC(=O)[C@@H](C)NC(=O)[C@@H](CC(C)C)OC(=O)[C@H](C(C)C)NC(=O)[C@H](C(C)C)OC(=O)[C@@H](C)NC1=O [cereulide],AUC(0-t),"[1]; both sexes, New Zealand White, iv, 5 ug, single i.v. 5 μg cereulide/rabbit, plasma, UPLC-MS/MS, non-compartmental, n = 8, mean ± SD, read-out: AUC, area under the curve for the plasma concentration until the last time point",321 ± 240 ng·h/mL
same,AUC(0-inf),"[1]; both sexes, New Zealand White, iv, 5 ug, single i.v. 5 μg cereulide/rabbit, plasma, UPLC-MS/MS, non-compartmental, n = 8, mean ± SD, read-out: AUC∞, area under the curve until infinity",390 ± 258 ng·h/mL
same,clearance,"[1]; both sexes, New Zealand White, iv, 5 ug, single i.v. 5 μg cereulide/rabbit, plasma, UPLC-MS/MS, non-compartmental, n = 8, mean ± SD, read-out: Cl, clearance (converted)",0.318 mL/min
same,Cmax,"[1]; both sexes, New Zealand White, iv, 5 ug, single i.v. 5 μg cereulide/rabbit, plasma, UPLC-MS/MS, non-compartmental, n = 8, mean ± SD, read-out: Cmax, maximum concentration after intravenous administration",40.8 ± 21.6 ng/mL
same,half-life,"[1]; both sexes, New Zealand White, iv, 5 ug, single i.v. 5 μg cereulide/rabbit, plasma, UPLC-MS/MS, non-compartmental, n = 8, mean ± SD, read-out: HL_Lambda_z, elimination half-life (converted)",648 ± 546 min
same,Vd,"[1]; both sexes, New Zealand White, iv, 5 ug, single i.v. 5 μg cereulide/rabbit, plasma, UPLC-MS/MS, non-compartmental, n = 8, mean ± SD, read-out: Vd, volume of distribution",0.32 ± 0.4 L
same,MRT,[1]; [4],9.6 ± 2.9 h
same,Tmax,[1]; [4],2.6 ± 3.4 h
same,MRT,[1]; [5],10.6 h
same,Tmax,[1]; [5],0.2 h
same,"AUC, area under the curve for the plasma concentration until the last time point","[1]; single i.v. 5 μg cereulide/rabbit (ear vein), plasma 0-32 h, UPLC-MS/MS, non-compartmental model (WinNonlin), n = 8, median",309.3 ng·h/mL
same,time after which no cereulide could be detected in plasma,[1]; [6],32 h
same,time at which cereulide was detected in plasma after injection,[1]; [6],≤ 0.2 h
same,"Lambda_z, elimination rate constant","[1]; single i.v. 5 μg cereulide/rabbit, plasma, UPLC-MS/MS, non-compartmental, n = 8, mean ± SD",0.1 ± 0.1 h⁻¹
same,"AUC∞, area under the curve until infinity",[1]; [7],330.5 ng·h/mL
same,"Cl, clearance",[1]; [7],15.5 mL/h
same,"Cmax, maximum concentration after intravenous administration",[1]; [7],33.8 ng/mL
same,"HL_Lambda_z, elimination half-life",[1]; [7],6.9 h
same,"Lambda_z, elimination rate constant",[1]; [7],0.1 h⁻¹
same,"Vd, volume of distribution",[1]; [7],208.1 mL
same,"AUC, area under the curve for the plasma concentration until the last time point",[1]; [8],81.2 to 851.1 ng·h/mL
same,"AUC∞, area under the curve until infinity",[1]; [8],126.0 to 853.9 ng·h/mL
same,"Cl, clearance",[1]; [8],5.9 to 39.7 mL/h
same,"Cmax, maximum concentration after intravenous administration",[1]; [8],13.3 to 78.1 ng/mL
same,"HL_Lambda_z, elimination half-life",[1]; [8],1.9 to 24.5 h
same,"Lambda_z, elimination rate constant",[1]; [8],0.03 to 0.4 h⁻¹
same,"MRTlast, mean retention time until the last time point",[1]; [8],4.5 to 13.4 h
same,"Tmax, time to peak concentration",[1]; [8],12 to 480 min
same,"Vd, volume of distribution",[1]; [8],16.3 to 1254.5 mL
same,AST concentration in plasma,[2]; 0.5 h after single i.v. 5 μg cereulide,99.1 ± 32.2 ng/mL
same,AST concentration in plasma,[2]; 12 h after single i.v. 5 μg cereulide,97.3 ± 55.3 ng/mL
same,stability to heat and proteolysis,[3],"heat-stable, proteolytically resistant"

# Reference: publication PMC4926125, “Evaluation of the Toxicity and Toxicokinetics of Cereulide from an Emetic Bacillus cereus Strain of Milk Origin” (Toxins, 2016)
